Read-outs that look alike come from different tables or passages of the source.
Experiments:
[1] = system: Mycosphaerella graminicola; test: Example G: in vivo test on Mycosphaerella graminicola (wheat leaf blotch disease); conditions: Zymoseptoria tritici, wheat plants sprayed 24 hours before inoculation, scored after 21 to 28 days, read-out: % Wirkungsgrad
Method: In Vivo Test on Mycosphaerella Graminicola (Wheat Leaf Blotch Disease) An aqueous suspension of the active substance was prepared by homogenization of a mixture of acetone/Tween/dimethyl sulphoxide and subsequent dilution with water to the desired concentration. Wheat plants (variety: Scipion) are sown in cultivation dishes on a peat-pozzolanic earth substrate (50/50) at 12° C. and sprayed at the first-leaf stage (10 cm size) with the aqueous suspension described above. As a control, plants are sprayed with an aqueous solution with no active substance. After 24 hours the plants are inoculated by spraying with an aqueous suspension of Mycosphaerella graminicola spores (500,000 spores per ml). The spores are derived from a 7 day-old culture. […] After 21 to 28 days they are scored in comparison with the control plants.

Botrytis cinerea [2] = test: Example B: in vivo test on Botrytis cinerea (grey mould on cucumbers); conditions: cucumber plants sprayed 24 hours before inoculation, scored after 5-7 days, read-out: % Wirkungsgrad
Method: In Vivo Test on Botrytis Cinerea (Grey Mould on Cucumbers) An aqueous suspension of the active substance was prepared by homogenization of a mixture of acetone/Tween/dimethyl sulphoxide and subsequent dilution with water to the desired concentration. Cucumber plants (variety: Vert petit de Paris) are sown in cultivation dishes on a peat-pozzolanic earth substrate (50/50) at 18-20° C. and sprayed at the cotyledon stage Z11 with the aqueous suspension described above. As a control, plants are sprayed with an aqueous solution with no active substance. […] The spores are derived from a 15 day-old culture which are suspended in the following nutrient solution: • 20 g/l gelatine • 50 g/l D-fructose • 2 g/l NH4NO3 • 1 g/l KH2PO4 The inoculated cucumber plants are kept for 5-7 days in a climatic chamber at […] After 5-7 days they are scored in comparison with the control plants.

Sphaerotheca fuliginea [3] = test: Example D: in vivo test on Sphaerotheca fuliginea (powdery mildew on cucumber); conditions: Podosphaera fuliginea, 288 h, cucumber plants sprayed 24 hours before inoculation, scored after 12 days, read-out: % Wirkungsgrad
Method: In Vivo Test on Sphaerotheca Fuliginea (Powdery Mildew on Cucumber) An aqueous suspension of the active substance was prepared by homogenization of a mixture of acetone/Tween/dimethyl sulphoxide and subsequent dilution with water to the desired concentration. Cucumber plants (variety: Vert petit de Paris) are sown in cultivation dishes on a peat-pozzolanic earth substrate (50/50) at 20/23° C. and at the cotyledon stage Z10 sprayed with the aqueous suspension described above. As a control, plants are sprayed with an aqueous solution with no active substance. After 24 hours the plants are inoculated by spraying with an aqueous suspension of Sphaerotheca fuliginea spores (100,000 spores per ml). The spores are derived from a contaminated plant. The inoculated cucumber plants are incubated at ca. 20/25° C. at a relative atmospheric humidity of 60/70%. After 12 days they are scored in comparison with the control plants.

[4] = system: Fusarium nivale (var. majus); test: whole plant or invertebrate; type: in vivo; conditions: Microdochium nivale, in Triticum aestivum, 120 h, read-out: % Wirkungsgrad (activity level)
Leptosphaeria nodorum = test: Example Q: in vivo test on Leptosphaeria nodorum (glume blotch in wheat/protective); conditions: Parastagonospora nodorum, 192 h, wheat, protective, assessment 8 days after inoculation, read-out: % Wirkungsgrad
Method: (§1) Solvent: 49 parts by weight N,N-dimethylacetamide Emulsifier: 1 part by weight alkylaryl polyglycol ethers For the preparation of a suitable active substance preparation, 1 part by weight of active substance is mixed with the stated quantities of solvent and emulsifier and the concentrate is diluted to the desired concentration with water. For the testing for protective activity, young plants are sprayed with the active substance preparation at the stated application dosage. After drying of the spray coating, the plants are sprayed with spores with a spore suspension of Leptosphaeria nodorum. […] 8 days after the inoculation, the assessment takes place.

Fusarium graminearum [5] = test: microbe, parasite or virus in culture; type: cell-based
Venturia inaequalis = test: Example O: in vivo test on Venturia inaequalis (apple scab/protective); conditions: 240 h, protective, assessment 10 days after inoculation, read-out: % Wirkungsgrad
Method in brief: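 Protective test: active substance mixed with solvent and alkylaryl polyglycol ether emulsifier, diluted with water, and sprayed on young plants at the stated dosage before Venturia inaequalis inoculation. Scab assessed 10 days after inoculation.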

Septoria tritici = test: Example R: in vivo test on Septoria tritici (leaf blotch in wheat/protective); conditions: Zymoseptoria tritici, 504 h, wheat, protective, 1000 ppm active substance, assessed 21 days after inoculation, read-out: % Wirkungsgrad (activity level)
Method: as §1, with “with” for “with spores with”, “Septoria tritici.” for “Leptosphaeria nodorum.”, “21” for “8”

Alternaria solani = test: Example M: in vivo test on Alternaria solani (leaf blotch disease/tomato/protective); conditions: 168 h, tomato, protective, 500 ppm active substance, assessed 7 days after inoculation, read-out: % Wirkungsgrad (activity level)
Method in brief: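 Protective test: young tomato plants sprayed with active substance (in DMF with alkylaryl polyglycol ether emulsifier, diluted in water) at the stated dosage, then inoculated with Alternaria solani. Disease assessed 7 days after inoculation.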

Rhynchosporium secalis = test: Example S: in vivo test on Rhynchosporium secalis (leaf scald in barley/protective); conditions: 336 h, barley, protective, 1000 ppm active substance, assessed 14 days after inoculation, read-out: % Wirkungsgrad (activity level)
Method: as §1, with “Rhynchosporium secalis.” for “Leptosphaeria nodorum.”, “14” for “8”

Fusarium graminearum [6] = test: whole plant or invertebrate; type: in vivo; conditions: in Hordeum vulgare, 120 h, read-out: % Wirkungsgrad (activity level)
Sphaerotheca fuliginea [7] = test: Example L: in vivo test on Sphaerotheca fuliginea (powdery mildew on cucumber/protective); conditions: Podosphaera fuliginea, 168 h, cucumber, protective, assessment 7 days after inoculation, read-out: % Wirkungsgrad
Method in brief: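 Young cucumber plants sprayed at stated dosage with compound in DMF/alkylaryl polyglycol ether emulsifier diluted in water; inoculated with S. fuliginea spores one day later. Kept in greenhouse at 70% relative humidity, 23° C; protective activity assessed 7 days after inoculation.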

Fusarium proliferatum = test: Example I: production of fumonisin FB1 by Fusarium proliferatum (microtitre plates); type: cell-based; conditions: 120 h
Botrytis cinerea [8] = test: Example P: in vivo test on Botrytis cinerea (gray mould on bean/protective); conditions: 48 h, bean, protective, 250 ppm active substance, assessed 2 days after inoculation, read-out: % Wirkungsgrad (activity level)
Method in brief: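 Protective test: young bean plants sprayed with the active substance preparation (emulsifier-based concentrate diluted in water) at the stated dosage. Once dry, each leaf received 2 agar pieces bearing Botrytis cinerea. Infection blotch size assessed 2 days after inoculation.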

[9] = LogPA (logP of the stated pure compound or, in a mixture, of the main isomer, 1-substituted 3-aryl-1H-pyrazole)

Structure (SMILES)	pest or weed control at 500 ppm [1]	pest or weed control at 500 ppm (Botrytis cinerea [2])	chromatographic logP (physchem; [9])	pest or weed control at 500 ppm (Sphaerotheca fuliginea [3])	pest or weed control at 1000 ppm [4]	pest or weed control at 1000 ppm (Leptosphaeria nodorum)	inhibition at 50 µM (Fusarium graminearum [5]; 72 h, read-out: % Inhibition des Pilzwachstums bei 50 μM)	inhibition at 50 µM (Fusarium graminearum [5]; 168 h, read-out: % Inhibition der DON/AcDON produktion bei 50 μM)	pest or weed control at 100 ppm (Venturia inaequalis)	pest or weed control at 1000 ppm (Septoria tritici)	pest or weed control at 500 ppm (Alternaria solani)	pest or weed control at 1000 ppm (Rhynchosporium secalis)	pest or weed control at 1000 ppm (Fusarium graminearum [6])	pest or weed control at 500 ppm (Sphaerotheca fuliginea [7])	inhibition at 50 µM (Fusarium proliferatum; Fusarium proliferatum growth, OD 620, 5 days, read-out: % Inhibition des Pilzwachstums bei 50 μM)	inhibition at 50 µM (Fusarium proliferatum; Fusarium proliferatum, 5 days at 20° C., HPLC-MS/MS, read-out: % Inhibition der FB1 produktion bei 50 μM)	pest or weed control at 250 ppm (Botrytis cinerea [8])	chromatographic logP (physchem; LogPA)
CC(C)Cn1cc(-c2ccncc2)c(-c2c(F)cccc2F)n1 [Compound 13]	95%	100%	1.62	90%														
CC(C)n1cc(-c2ccncc2)c(-c2c(F)cccc2F)n1 [Compound 14]	88%	100%	1.4	80%														
Fc1cccc(F)c1-c1c(-c2ccncc2)cnn1C1CCCC1 [Compound 17]	88%	83%	1.74	80%														
CCC(=O)Nc1cc(-c2cn(C(C)CC)nc2-c2ccc(F)cc2)ccn1 (centres unmarked) [Compound 164]			2.46		100%	93%	100%	99%	97%	100%	95%	100%	100%	100%	97%	100%		
CC(C)Cn1cc(-c2ccnc(N)n2)c(-c2ccc(F)cc2)n1 [Compound 184]					100%	88%			92%	100%	95%	71%	100%	95%			100%	1.81

From US20110183978A1, “Phenylpyri(mi)dinylazoles” (Bayer CropScience AG, priority 2009, published 2011)
